Data from patent publication US20240270821A1, “GIP/GLP1/GCG TRI-RECEPTOR AGONISTS AND USES THEREOF” (priority 2023, published 2024).
Like-named read-outs stand apart in the source and are kept apart here. Starred links: 1 amine or outer side, 2 acyl side, 3 side chain; linkers in the order of their positions; H or OH if unused. Non-standard residues stand in square brackets, D forms with d. Residues, ends and D or L forms follow the SMILES beside them. Groups on a side chain read outwards from the residue. No end group written: not given here. *: point of attachment. C20 diacid = O=C(O)CCCCCCCCCCCCCCCCCCC(=O)*; C18 diacid = O=C(O)CCCCCCCCCCCCCCCCC(=O)*; αMePhe(2-F) = C[C@](N)(Cc1ccccc1F)C(=O)O; γGlu = O=C(O)[C@H](CCC(=O)[*:2])N[*:1]; αMe4Pal = C[C@](N)(Cc1ccncc1)C(=O)O; αMeY = C[C@](N)(Cc1ccc(O)cc1)C(=O)O; 4Pal = N[C@@H](Cc1ccncc1)C(=O)O; αMeL = CC(C)C[C@](C)(N)C(=O)O; αMeS = C[C@](N)(CO)C(=O)O; Orn = NCCC[C@H](N)C(=O)O; AEEA = NCCOCCOCC(=O)O; Aib = CC(C)(N)C(=O)O

How the values were obtained:
Type in all cases: cell-based
[1] = target: human GcgR (Homo sapiens, UniProt P47871); assay: Functional cAMP activity in the presence of 1% HSA; conditions: read-out: cAMP Rel EC50, hGcgR
human GcgR, sequence (P47871 26-477): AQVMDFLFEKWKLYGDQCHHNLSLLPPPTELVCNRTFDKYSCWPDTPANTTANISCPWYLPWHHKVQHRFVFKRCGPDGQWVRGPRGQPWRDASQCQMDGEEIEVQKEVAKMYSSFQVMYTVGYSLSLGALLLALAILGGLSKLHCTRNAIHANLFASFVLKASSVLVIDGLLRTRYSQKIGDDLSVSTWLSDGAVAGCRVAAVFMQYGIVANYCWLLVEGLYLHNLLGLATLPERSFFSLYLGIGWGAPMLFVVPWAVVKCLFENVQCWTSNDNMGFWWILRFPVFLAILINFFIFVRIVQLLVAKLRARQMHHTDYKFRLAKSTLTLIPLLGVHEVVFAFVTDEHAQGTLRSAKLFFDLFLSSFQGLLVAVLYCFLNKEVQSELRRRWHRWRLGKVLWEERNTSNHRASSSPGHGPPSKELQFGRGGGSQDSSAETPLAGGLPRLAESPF

[2] = target: hGcgR (Homo sapiens, UniProt P47871); assay: Functional cAMP activation in the presence of 0.1% casein (no HSA); conditions: read-out: Relative cAMP EC50, hGcgR;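 also: intracellular cAMP rise after 30 min at 37 °C, read by HTRF against a cAMP standard curve, scaled from buffer only (0%) to maximal control ligand response (100%)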
hGcgR, sequence (P47871 26-477): as above

[3] = target: T1, hGIPR (Homo sapiens, UniProt P48546); assay: Functional cAMP activity in the presence of 1% HSA; conditions: read-out: cAMP Rel EC50, hGIPR
T1 sequence (P48546 22-466): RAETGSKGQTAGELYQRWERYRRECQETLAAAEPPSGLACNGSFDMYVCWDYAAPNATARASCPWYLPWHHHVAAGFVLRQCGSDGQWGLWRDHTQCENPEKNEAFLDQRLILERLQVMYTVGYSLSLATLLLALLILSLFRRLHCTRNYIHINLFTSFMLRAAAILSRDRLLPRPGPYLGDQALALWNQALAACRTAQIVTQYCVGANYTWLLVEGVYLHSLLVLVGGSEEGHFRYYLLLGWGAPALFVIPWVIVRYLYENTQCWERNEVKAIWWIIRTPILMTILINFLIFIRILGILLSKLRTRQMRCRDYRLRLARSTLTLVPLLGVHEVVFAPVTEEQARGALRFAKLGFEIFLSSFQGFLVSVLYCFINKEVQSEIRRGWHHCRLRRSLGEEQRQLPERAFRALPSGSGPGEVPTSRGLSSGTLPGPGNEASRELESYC

[4] = target: T2, hGLP-1R (Homo sapiens, UniProt P43220); assay: Functional cAMP activity in the presence of 1% HSA; conditions: read-out: cAMP Rel EC50, hGLP-1R
T2 sequence (P43220 24-463): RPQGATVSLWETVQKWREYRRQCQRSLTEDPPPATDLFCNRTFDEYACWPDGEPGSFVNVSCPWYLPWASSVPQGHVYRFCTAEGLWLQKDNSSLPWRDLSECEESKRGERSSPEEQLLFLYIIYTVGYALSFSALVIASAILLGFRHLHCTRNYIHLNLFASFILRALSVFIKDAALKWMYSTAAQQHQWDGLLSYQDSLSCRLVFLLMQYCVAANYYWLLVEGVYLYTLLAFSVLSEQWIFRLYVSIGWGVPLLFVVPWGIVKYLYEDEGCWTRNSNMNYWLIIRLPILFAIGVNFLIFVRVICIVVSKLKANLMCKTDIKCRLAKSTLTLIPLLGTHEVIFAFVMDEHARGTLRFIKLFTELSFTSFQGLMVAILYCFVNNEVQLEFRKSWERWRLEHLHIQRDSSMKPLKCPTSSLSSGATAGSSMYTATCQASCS

[5] = target: T2, hGLP-1R; assay: Functional cAMP activation in the presence of 0.1% casein (no HSA); conditions: read-out: Relative cAMP EC50, hGLP-1R;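 as to Relative cAMP EC50, hGIPR: intracellular cAMP rise after 30 min at 37 °C read by HTRF against a standard curve, scaled between buffer alone (0%) and top control ligand concentration (100%), four-parameter fit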;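 as to Relative cAMP EC50, hGLP-1R: intracellular cAMP rise after 30 min at 37 °C read by HTRF, normalized between buffer only (0%) and maximal control ligand (100%), four-parameter variable-slope fit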
[6] = target: T1, hGIPR; assay: as above; conditions: read-out: Relative cAMP EC50, hGIPR
[7] = HEK-293 clonal cell line, 1% HSA, geometric mean of relative EC50
[8] = in the presence of 0.1% casein (no HSA), geometric mean of relative EC50
[9] = in the presence of 0.1% casein (no HSA), geometric mean

Row | Molecule | EC50 [1] | EC50 [2] | EC50 [3] | EC50 [4] | EC50 [5] | EC50 [6] | EC50 [2, 9] | EC50 [5, 9] | EC50 [6, 9] | also measured
1 | H-Y[Aib]QGT[αMePhe(2-F)]TSD[4Pal]SILLD[Orn]K([γGlu-γGlu-C18 diacid])AQ[Aib]AFIEYLEEGGPSSGAPPPSGTGE-NH2 [Example 514] | 1150 nM | 6.68 nM | 10 nM | 82 nM | 0.623 nM | 0.0744 nM |  |  |  | 
2 | H-Y[Aib]QGT[αMePhe(2-F)]TSD[4Pal]SI[αMeL]LDKK([γGlu-γGlu-C18 diacid])AQ[Aib][Orn]FIEYLSEGGPSSGEPPPEGSEE-NH2 [Example 651] |  |  |  |  |  |  |  |  |  | EC50 [1, 7]: 639 nM; EC50 [2, 8]: 10.7 nM; EC50 [3, 7]: 6.3 nM; EC50 [4, 7]: 53.9 nM; EC50 [5, 8]: 1.02 nM; EC50 [6, 8]: 0.112 nM
3 | CC[C@H](C)[C@H](NC(=O)[C@H](Cc1ccccc1)NC(=O)[C@H](C)NC(=O)C(C)(C)NC(=O)[C@H](CCC(N)=O)NC(=O)[C@H](C)NC(=O)[C@H](CCCCNC(=O)COCCOCCNC(=O)COCCOCCNC(=O)CC[C@H](NC(=O)CCCCCCCCCCCCCCCCC(=O)O)C(=O)O)NC(=O)[C@H](CCCCN)NC(=O)[C@H](CC(=O)O)NC(=O)[C@H](CC(C)C)NC(=O)[C@](C)(CC(C)C)NC(=O)[C@H](CCCCN)NC(=O)[C@H](CO)NC(=O)[C@H](Cc1ccccc1)NC(=O)[C@H](CC(=O)O)NC(=O)[C@H](CO)NC(=O)[C@@H](NC(=O)[C@H](Cc1ccccc1)NC(=O)[C@@H](NC(=O)CNC(=O)[C@H](CCC(N)=O)NC(=O)C(C)(C)NC(=O)[C@@H](N)Cc1ccc(O)cc1)[C@@H](C)O)[C@@H](C)O)C(=O)N[C@@H](CCC(=O)O)C(=O)N[C@@H](Cc1ccc(O)cc1)C(=O)N[C@@H](CC(C)C)C(=O)N[C@@H](CC(C)C)C(=O)N[C@@H](C)C(=O)NCC(=O)NCC(=O)N1CCC[C@H]1C(=O)N[C@@H](CO)C(=O)N[C@@H](CO)C(=O)NCC(=O)N[C@@H](CCC(=O)O)C(=O)N1CCC[C@H]1C(=O)N1CCC[C@H]1C(=O)N1CCC[C@H]1C(=O)N[C@@H](CO)C(=O)N[C@@H](CCC(=O)O)C(=O)NCC(N)=O [Example 25] | 939 nM |  | 19.8 nM | 520 nM |  |  | 6.8 nM | 3.34 nM | 0.128 nM | 
4 | H-Y[Aib]QGT[αMePhe(2-F)]TSDYSK[αMeL]LDKK([AEEA-γGlu-C18 diacid])AQ[Aib]QFIEYLEEGGPSSGEPPPSEG-NH2 [Example 292] |  |  |  |  |  |  | 1.84 nM | 1.03 nM | 1.02 nM | EC50 ([1]; HEK-293 clonal cells expressing hGcgR, in the presence of 1% HSA, geometric mean of relative EC50): 583 nM; EC50 ([3]; HEK-293 clonal cells expressing hGIPR, in the presence of 1% HSA, geometric mean of relative EC50): 92.7 nM; EC50 ([4]; HEK-293 clonal cells expressing hGLP-1R, in the presence of 1% HSA, geometric mean of relative EC50): 129 nM
5 | H-Y[Aib]QGT[αMePhe(2-F)]TSD[4Pal][αMeS]I[αMeL]LD[Orn]K([γGlu-γGlu-C18 diacid])AQ[Aib][Orn]FI[dE][αMeY]LSEGGPSSGEPPPSGTE-NH2 [Example 517] | 337 nM | 4.69 nM | 9.12 nM | 50 nM | 0.646 nM | 0.158 nM |  |  |  | 
6 | H-Y[Aib]QGTFTSDYSI[αMeL]LDKQAAK([AEEA-AEEA-γGlu-C20 diacid])QFVNWLLA[Aib]GPSSGEPPPSEG-NH2 [Example 325] | 774 nM |  | 82.7 nM | 371 nM |  |  | 2.43 nM | 1.56 nM | 0.351 nM | 
7 | H-Y[Aib]QGT[αMePhe(2-F)]TSD[4Pal]SILLDKK([γGlu-γGlu-C18 diacid])AQ[Aib]AFIEYLEEGGPSSGAPPPSGEGE-NH2 [Example 621] | 901 nM | 6.81 nM | 7.31 nM | 111 nM | 1.28 nM | 0.0661 nM |  |  |  | 
8 | H-Y[Aib]QGTFTSD[4Pal]SQ[αMeL]LDKK([AEEA-γGlu-C18 diacid])AQ[αMe4Pal]AFIEYLIE[Aib]GPSSGAPPPSGSGE [Example 889] | 688 nM |  | 21.6 nM | 371 nM |  |  | 4.09 nM | 5.06 nM | 0.106 nM | 
9 | H-Y[Aib]QGT[αMePhe(2-F)]TSD[4Pal]SI[αMeL]LD[Orn]K([AEEA-γGlu-C18 diacid])AQ[Aib][Orn]FIEYLLEGGPSSGEPPPEEG-NH2 [Example 494] | 333 nM | 1.26 nM | 1.08 nM | 19.9 nM | 0.211 nM | 0.014 nM |  |  |  | 
10 | Y[Aib]Q[dA]T[αMePhe(2-F)]TSD[4Pal]SI[αMeL]LD[Orn]K([AEEA-γGlu-C18 diacid])AQ[αMe4Pal][Orn]FI[dE][αMeY]LIEGGPSSGEPPPESE-NH2 [Example 765] | 111 nM | 0.952 nM | 44.6 nM | 26.1 nM | 0.25 nM | 0.0642 nM |  |  |  | 
11 | CC[C@H](C)[C@H](NC(=O)[C@H](Cc1ccccc1)NC(=O)[C@H](C)NC(=O)C(C)(C)NC(=O)[C@H](CCC(N)=O)NC(=O)[C@H](C)NC(=O)[C@H](CCCCNC(=O)CC[C@H](NC(=O)CC[C@H](NC(=O)CCCCCCCCCCCCCCCCC(=O)O)C(=O)O)C(=O)O)NC(=O)[C@H](CCCCN)NC(=O)[C@H](CC(=O)O)NC(=O)[C@H](CC(C)C)NC(=O)[C@H](CC(C)C)NC(=O)[C@@H](NC(=O)[C@H](CO)NC(=O)[C@H](Cc1ccncc1)NC(=O)[C@H](CC(=O)O)NC(=O)[C@H](CO)NC(=O)[C@@H](NC(=O)[C@](C)(Cc1ccccc1F)NC(=O)[C@@H](NC(=O)CNC(=O)[C@H](CCC(N)=O)NC(=O)C(C)(C)NC(=O)[C@@H](N)Cc1ccc(O)cc1)[C@@H](C)O)[C@@H](C)O)[C@@H](C)CC)C(=O)N[C@@H](CCC(=O)O)C(=O)N[C@@H](Cc1ccc(O)cc1)C(=O)N[C@@H](CC(C)C)C(=O)N[C@@H](CCC(=O)O)C(=O)N[C@@H](CCC(=O)O)C(=O)NCC(=O)NCC(=O)N1CCC[C@H]1C(=O)N[C@@H](CO)C(=O)N[C@@H](CO)C(=O)NCC(=O)N[C@@H](C)C(=O)N1CCC[C@H]1C(=O)N1CCC[C@H]1C(=O)N1CCC[C@H]1C(=O)N[C@@H](CO)C(N)=O [Example 413] (H-Y[Aib]QGT[αMePhe(2-F)]TSD[4Pal]SILLDKK([γGlu-γGlu-C18 diacid])AQ[Aib]AFIEYLEEGGPSSGAPPPS-NH2) | 629 nM | 6.3 nM | 23.5 nM | 41.4 nM | 0.564 nM | 0.0881 nM |  |  |  | 
12 | H-Y[Aib]QGTFTSDFS[Orn][αMeL]LDKK([AEEA-γGlu-C18 diacid])AQ[Aib]AFIE[4Pal]LLEGGPSSGAPPPGGS-NH2 [Example 496] | 1500 nM | 8.25 nM | 60.8 nM | 1480 nM | 9.69 nM | 0.387 nM |  |  |  | 
13 | H-Y[Aib]QGTFTSD[4Pal]SQ[αMeL]LD[Orn]K([γGlu-γGlu-C18 diacid])AQ[αMe4Pal]AFIE[αMeY]LIE[Aib]GPSSGEPPPSGSEE-NH2 [Example 1093] | 958 nM |  | 26.8 nM | 141 nM |  |  | 7.72 nM | 0.954 nM | 0.152 nM | 
